Molecules are shown by their SMILES.

For orientation: IC50 means the concentration that inhibits the measured activity by half. The term EC50 denotes the concentration at which the effect is half-maximal.

One test addresses T1, EGFR WT (Homo sapiens, UniProt P00533).
T1 construct: purchased Thermo Fisher, Carlsbad, CA ERBB1 PR7295B
Description: Enzymatic assay EGFR WT (method c). To be noted: [EGFR WT]=2 nM, [ATP]=1 mM, [Peptide 22]=1 μM. The format is biochemical. In short, it runs like this: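 Initial rates over 0–3600 s, read as substrate-to-product conversion by capillary electrophoresis, were converted to percent inhibition and fitted with a variable-slope curve to give IC50. Conditions: EGFR WT 2 nM with 1 mM ATP; HER2 YVMA 5 nM or HER2 WT 12.5 nM, each with 25 μM ATP. All used 1 μM Peptide 22 in pH 7.5 HEPES/Mn/Mg buffer.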

The target of another test is EGFR (Homo sapiens, UniProt P00533). As to the kind of experiment: EGFR signaling (pEGFR Tyr1068/total EGFR MSD) in A431 cells. The format is cell-based. On the set-up: endogenous in cells; host or cells: A431, N87. To be noted: for EC50: A431 cells, read-out: A431 pEGFR EC50; for Selectivity A431 EC50/BT474 EC50: ratio A431 pEGFR EC50 to BT474 pHER2 EC50; for Selectivity A431 EC50/HEKYVMA EC50: ratio A431 pEGFR EC50 to HEK YVMA pHER2 EC50. In short, it runs like this: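 EC50 was fitted with variable Hill slope from MSD pTyr1068/total EGFR ratios, expressed as % DMSO control. A431 cells were starved overnight, then exposed 1.5 h to eight concentrations from 10 to 0.005 μM in 1% FBS before a 10-min 100 ng/mL EGF pulse.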
Sequence of EGFR (P00533 25-1210): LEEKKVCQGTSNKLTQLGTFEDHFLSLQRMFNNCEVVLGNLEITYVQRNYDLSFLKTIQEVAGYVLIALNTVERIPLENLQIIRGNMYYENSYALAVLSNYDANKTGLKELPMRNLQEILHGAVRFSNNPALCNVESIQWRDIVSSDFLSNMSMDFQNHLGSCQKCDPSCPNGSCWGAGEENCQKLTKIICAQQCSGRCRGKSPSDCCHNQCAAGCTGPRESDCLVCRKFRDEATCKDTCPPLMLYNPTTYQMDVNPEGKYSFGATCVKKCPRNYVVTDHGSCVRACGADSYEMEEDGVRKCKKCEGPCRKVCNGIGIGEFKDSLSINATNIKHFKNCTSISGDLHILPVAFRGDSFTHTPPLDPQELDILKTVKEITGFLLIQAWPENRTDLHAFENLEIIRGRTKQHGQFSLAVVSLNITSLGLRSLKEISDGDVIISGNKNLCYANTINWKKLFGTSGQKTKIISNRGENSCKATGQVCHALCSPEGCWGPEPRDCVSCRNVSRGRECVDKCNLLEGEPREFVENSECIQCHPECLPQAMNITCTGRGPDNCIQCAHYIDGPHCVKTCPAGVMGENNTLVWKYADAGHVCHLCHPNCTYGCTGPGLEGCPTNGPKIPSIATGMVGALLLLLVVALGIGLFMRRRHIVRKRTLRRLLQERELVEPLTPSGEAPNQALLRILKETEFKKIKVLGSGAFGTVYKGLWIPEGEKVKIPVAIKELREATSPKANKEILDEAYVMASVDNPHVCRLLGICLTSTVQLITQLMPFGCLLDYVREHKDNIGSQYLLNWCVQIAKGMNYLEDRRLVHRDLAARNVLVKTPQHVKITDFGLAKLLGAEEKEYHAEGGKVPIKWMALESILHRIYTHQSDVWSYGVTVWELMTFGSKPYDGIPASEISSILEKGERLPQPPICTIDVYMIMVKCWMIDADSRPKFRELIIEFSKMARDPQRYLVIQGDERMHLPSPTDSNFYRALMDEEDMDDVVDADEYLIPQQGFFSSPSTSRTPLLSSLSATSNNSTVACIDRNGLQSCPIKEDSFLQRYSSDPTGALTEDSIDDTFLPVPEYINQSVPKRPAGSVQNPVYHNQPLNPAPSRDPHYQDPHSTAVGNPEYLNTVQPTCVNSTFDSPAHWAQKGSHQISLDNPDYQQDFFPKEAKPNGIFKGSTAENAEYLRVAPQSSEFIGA

T1 sequence (P00533 25-1210): as above

For the molecule `Cc1ccc(Oc2ccc(Nc3ncnc4sc5c(c34)CCN(C(=O)/C=C/CN3CC=CCC3)C5)cc2C)cn1` [Compound 55], the concentration for half-maximal inhibition (IC50) against EGFR WT was greater than 10000 nM. Further, on EGFR, the EC50 was in the range of 100 to 1000 nM; the “Selectivity A431 EC50/BT474 EC50” value was “B (B: ≥ 20 and < 100)”; the “Selectivity A431 EC50/HEKYVMA EC50” value was “B (B: ≥ 20 and < 100)”.
On to `O=C(/C=C/CN1CC2C(CO)C2C1)N1CCc2c(sc3ncnc(Nc4ccc(Oc5ccc6ncnn6c5)c(Cl)c4)c23)C1` (stereo not shown) [Compound 92], for which the concentration for half-maximal inhibition (IC50) at EGFR WT is greater than 10000 nM. Moreover, on EGFR, the EC50 is less than 100 nM; the “Selectivity A431 EC50/BT474 EC50” value is “C (C: ≥ 10 and < 20)”; the “Selectivity A431 EC50/HEKYVMA EC50” value is “C (C: ≥ 10 and < 20)”.
On EGFR WT, `CCN1CCN(C/C=C/C(=O)N2CCc3c(sc4ncnc(Nc5ccc(Oc6ccc(C)nc6)c(C)c5)c34)C2)CC1` [Compound 46] displayed a half-inhibitory concentration (IC50) greater than 10000 nM. At EGFR, the concentration for a half-maximal effect (EC50) was 1000 to 10000 nM; the “Selectivity A431 EC50/BT474 EC50” value is “B (B: ≥ 20 and < 100)”; the “Selectivity A431 EC50/HEKYVMA EC50” value is “C (C: ≥ 10 and < 20)”.
In turn, `Cc1ccc(Oc2ccc(Nc3ncnc4sc5c(c34)CCN(C(=O)/C=C/CNC3CCOC3)C5)cc2C)cn1` (stereo not shown) [Compound 47] yielded an IC50 on EGFR WT of 1000 to 10000 nM. For the same molecule, on EGFR, the EC50 lay within 100 to 1000 nM; the “Selectivity A431 EC50/BT474 EC50” value is “C (C: ≥ 10 and < 20)”; the “Selectivity A431 EC50/HEKYVMA EC50” value was “C (C: ≥ 10 and < 20)”.
In turn, `Cc1cc(Nc2ncnc3sc4c(c23)CCN(C(=O)/C=C/CN2CC3C(CO)C3C2)C4)ccc1Oc1ccc2ncnn2c1` (stereo not shown) [Compound 81] yielded a half-inhibitory concentration (IC50) against EGFR WT greater than 10000 nM. Also, at EGFR, the EC50 was in the range of 100 to 1000 nM; the “Selectivity A431 EC50/BT474 EC50” value was “B (B: ≥ 20 and < 100)”; the “Selectivity A431 EC50/HEKYVMA EC50” value is “C (C: ≥ 10 and < 20)”.
At EGFR WT, `Cc1ccc(Oc2ccc(Nc3ncnc4sc5c(c34)CCN(C(=O)/C=C/CN3C[C@H]4CC[C@@H](C3)O4)C5)cc2C)cn1` [Compound 66] gave an IC50 greater than 10000 nM. In addition, on EGFR, the EC50 lay within 100 to 1000 nM; the “Selectivity A431 EC50/BT474 EC50” value is “C (C: ≥ 10 and < 20)”; the “Selectivity A431 EC50/HEKYVMA EC50” value is “C (C: ≥ 10 and < 20)”.
`CN(C/C=C/C(=O)N1CCc2c(sc3ncnc(Nc4ccc(Oc5ccc6ncnn6c5)c(Cl)c4)c23)C1)C(C)(C)C` [Compound 91]: at EGFR WT, the IC50 was greater than 10000 nM. Moreover, on EGFR, the EC50 is less than 100 nM; the “Selectivity A431 EC50/BT474 EC50” value is “C (C: ≥ 10 and < 20)”; the “Selectivity A431 EC50/HEKYVMA EC50” value is “D (D: ≥ 5 and < 10)”.
Regarding `Cc1ccc(Oc2ccc(Nc3ncnc4sc5c(c34)CCN(C(=O)/C=C/CN3CC(O)CO3)C5)cc2C)cn1` (stereo not shown) [Compound 43], the IC50 on EGFR WT was greater than 10000 nM. In addition, on EGFR, the EC50 was greater than 10000 nM; the “Selectivity A431 EC50/BT474 EC50” value was “B (B: ≥ 20 and < 100)”; the “Selectivity A431 EC50/HEKYVMA EC50” value is “C (C: ≥ 10 and < 20)”.
On EGFR WT, `Cc1cc(Nc2ncnc3sc4c(c23)CCN(C(=O)/C=C/CN(C)C)C4)ccc1Oc1ccc2ncnn2c1` [Compound 3, (E)-1-(4-((4-([1,2,4]triazolo[1,5-a]pyridin-6-yloxy)-3-methylphenyl)amino)-5,8-dihydropyrido[4′,3′:4,5]thieno[2,3-d]pyrimidin-7(6H)-yl)-4-(dimethylamino)but-2-en-1-one] gave an IC50 of 1000 to 10000 nM. For the same molecule, on EGFR, the EC50 was in the range of 100 to 1000 nM; the “Selectivity A431 EC50/BT474 EC50” value is “B (B: ≥ 20 and < 100)”; the “Selectivity A431 EC50/HEKYVMA EC50” value is “E (E: >1 and < 5)”.
For the molecule `Cc1cc(Nc2ncnc3sc4c(c23)CCN(C(=O)/C=C/CN2CC(C)OC(C)C2C)C4)ccc1Oc1ccc2ncnn2c1` (stereo not shown) [Compound 83], at EGFR WT, the IC50 was greater than 10000 nM. For the same molecule, at EGFR, the EC50 fell in the range of 1000 to 10000 nM; the “Selectivity A431 EC50/BT474 EC50” value is given as “A (A: ≥100)”; the “Selectivity A431 EC50/HEKYVMA EC50” value was “B (B: ≥ 20 and < 100)”.
The molecule `Cc1ccc(Oc2ccc(Nc3ncnc4sc5c(c34)CCN(C(=O)/C=C/CNC3CCC3)C5)cc2C)cn1` [Compound 54] returned an IC50 on EGFR WT greater than 10000 nM. On EGFR, the EC50 is 100 to 1000 nM; the “Selectivity A431 EC50/BT474 EC50” value is “D (D: ≥ 5 and < 10)”; the “Selectivity A431 EC50/HEKYVMA EC50” value is “D (D: ≥ 5 and < 10)”.
`Cc1ccc(Oc2ccc(Nc3ncnc4sc5c(c34)CCN(C(=O)/C=C/CN3CCC(O)C3)C5)cc2C)cn1` (stereo not shown) [Compound 74] gave an IC50 against EGFR WT of 1000 to 10000 nM. At EGFR, the EC50 is 100 to 1000 nM; the “Selectivity A431 EC50/BT474 EC50” value is “D (D: ≥ 5 and < 10)”; the “Selectivity A431 EC50/HEKYVMA EC50” value is “D (D: ≥ 5 and < 10)”.
Molecule `Cc1ccc(Oc2ccc(Nc3ncnc4sc5c(c34)CCN(C(=O)/C=C/CNCc3ccsc3)C5)cc2C)cn1` [Compound 52] gave an IC50 against EGFR WT of 1000 to 10000 nM. Moreover, at EGFR, the EC50 is less than 100 nM; the “Selectivity A431 EC50/BT474 EC50” value is “D (D: ≥ 5 and < 10)”; the “Selectivity A431 EC50/HEKYVMA EC50” value was “C (C: ≥ 10 and < 20)”.
`Cc1cc(Nc2ncnc3sc4c(c23)CCN(C(=O)/C=C/CN(C)C)C4)ccc1Oc1ccc2[nH]ncc2c1` [Compound 22, (E)-1-(4-((4-((1H-indazol-5-yl)oxy)-3-methylphenyl)amino)-5,8-dihydropyrido[4′,3′:4,5]thieno[2,3-d]pyrimidin-7(6H)-yl)-4-(dimethylamino)but-2-en-1-one] registered a concentration for half-maximal inhibition (IC50) at EGFR WT of 1000 to 10000 nM. Further, at EGFR, the EC50 is less than 100 nM; the “Selectivity A431 EC50/BT474 EC50” value is “D (D: ≥ 5 and < 10)”; the “Selectivity A431 EC50/HEKYVMA EC50” value is “E (E: >1 and < 5)”.
The molecule `Cc1ccc(Oc2ccc(Nc3ncnc4sc5c(c34)CCN(C(=O)/C=C/CN[C@H]3CCC[C@H](O)C3)C5)cc2C)cn1` [Compound 73] showed an IC50 at EGFR WT of 1000 to 10000 nM. Moreover, at EGFR, the EC50 lay within 100 to 1000 nM; the “Selectivity A431 EC50/BT474 EC50” value was “D (D: ≥ 5 and < 10)”; the “Selectivity A431 EC50/HEKYVMA EC50” value was “E (E: >1 and < 5)”.
For the molecule `Cc1ccc(Oc2ccc(Nc3ncnc4sc5c(c34)CCN(C(=O)/C=C/CN3CCn4cc(C(F)(F)F)nc4C3)C5)cc2C)cn1` [Compound 61], at EGFR WT, the concentration for half-maximal inhibition (IC50) is greater than 10000 nM. Moreover, on EGFR, the EC50 is greater than 10000 nM; the “Selectivity A431 EC50/BT474 EC50” value is “B (B: ≥ 20 and < 100)”; the “Selectivity A431 EC50/HEKYVMA EC50” value is “C (C: ≥ 10 and < 20)”.
On EGFR WT, `Cc1ccc(Oc2ccc(Nc3ncnc4[nH]c5c(c34)CN(C(=O)/C=C/CN(C)C)CC5)cc2C)cn1` [Compound 97, (E)-4-(dimethylamino)-1-(4-((3-methyl-4-((6-methylpyridin-3-yl)oxy)phenyl)amino)-5,7,8,9-tetrahydro-6H-pyrido[3′,4′:4,5]pyrrolo[2,3-d]pyrimidin-6-yl)but-2-en-1-one] displayed an IC50 greater than 10000 nM. Also, at EGFR, the concentration for a half-maximal effect (EC50) was in the range of 100 to 1000 nM; the “Selectivity A431 EC50/BT474 EC50” value is “B (B: ≥ 20 and < 100)”; the “Selectivity A431 EC50/HEKYVMA EC50” value is “E (E: >1 and < 5)”.
`CNC(=O)CNC/C=C/C(=O)N1CCc2c(sc3ncnc(Nc4ccc(Oc5ccc(C)nc5)c(C)c4)c23)C1` [Compound 39] came in with a half-inhibitory concentration (IC50) against EGFR WT greater than 10000 nM. For the same molecule, on EGFR, the EC50 lay within 1000 to 10000 nM; the “Selectivity A431 EC50/BT474 EC50” value is “C (C: ≥ 10 and < 20)”; the “Selectivity A431 EC50/HEKYVMA EC50” value is “D (D: ≥ 5 and < 10)”.
Molecule `C=CC(=O)N1CCc2[nH]c3ncnc(Nc4ccc(Oc5ccc6ncnn6c5)c(C)c4)c3c2C1` [Compound 102, 1-(4-((4-([1,2,4]triazolo[1,5-a]pyridin-6-yloxy)-3-methylphenyl)amino)-5,7,8,9-tetrahydro-6H-pyrido[3′,4′:4,5]pyrrolo[2,3-d]pyrimidin-6-yl)prop-2-en-1-one] yielded a concentration for half-maximal inhibition (IC50) against EGFR WT greater than 10000 nM. Also, at EGFR, the 50% effective concentration (EC50) was in the range of 1000 to 10000 nM; the “Selectivity A431 EC50/BT474 EC50” value is “C (C: ≥ 10 and < 20)”; the “Selectivity A431 EC50/HEKYVMA EC50” value was “C (C: ≥ 10 and < 20)”.
